Measurements taken from BigSolDB 2.1.

Cn1nnc2c(C(N)=O)ncn2c1=O
solubility (mole fraction)
Conditions | 273.15 K | 278.15 K | 283.15 K | 288.15 K | 293.15 K | 298.15 K | 303.15 K | 308.15 K | 313.15 K | 318.15 K
in ethanol | 6.58e-05 | 7.89e-05 | 9.48e-05 | 0.000115 | 0.000136 | 0.00016 | 0.000188 | 0.000225 | 0.000269 | 0.000313
in ethyl acetate | 8.03e-05 | 9.96e-05 | 0.00012 | 0.000144 | 0.000173 | 0.000206 | 0.000237 | 0.000277 | 0.000319 | 0.000371
in isopropanol | 2.2e-05 | 2.69e-05 | 3.4e-05 | 4.26e-05 | 5.17e-05 | 6.38e-05 | 7.8e-05 | 9.41e-05 | 0.000116 | 0.000143
in methanol | 0.000174 | 0.000217 | 0.00027 | 0.000327 | 0.00039 | 0.000459 | 0.000536 | 0.000621 | 0.00072 | 0.000838
in n-propanol | 4.28e-05 | 5.53e-05 | 6.99e-05 | 8.65e-05 | 0.000107 | 0.00013 | 0.000157 | 0.000188 | 0.000226 | 0.000271
